Data: the supplement of paper PMC11061612

Legend:
[1] = system: SW756 (Cervical Carcinoma); test: Bliss excess, mean over the matrix (fraction); higher = more synergy
Summary of the method: (§1)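 Cell lines grown in DMEM/F12 or RPMI with 10% FBS were plated in 1536-well plates and held 24 hours at 37°C, 5% CO2 before 72 hours of exposure to two-drug dose matrices, with DMSO typically at 0.2%. CellTiter-Glo 2.0 luminescence gave viability, which was converted to inhibition. Vehicle wells were set to 0 and blank wells to 1. Combination Emax is the second-highest inhibition in the matrix, and Bliss excess is the observed combination effect minus the expected EA + EB − EA·EB, where EA and EB are the single-agent effects.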

[2] = system: SUIT-2 (Pancreatic Carcinoma); test: as above
Summary of the method: as §1

[3] = system: TGBC24TKB (Biliary Tract Carcinoma); test: as above
Summary of the method: as §1

[4] = system: KM-H2 (Hodgkin's Lymphoma); test: as above
Summary of the method: as §1

RH-1 (Ewing's Sarcoma) = test: as above
Summary of the method: as §1

[5] = system: SW780 (Bladder Carcinoma); test: as above
Summary of the method: as §1

DSH1 (Bladder Carcinoma) = test: combination Emax (second highest fraction inhibited in the dose matrix, 72 h); higher = more inhibition; extreme values may be limits of the assay
Summary of the method: as §1

[6] = system: MDA-MB-157 (Breast Carcinoma); test: as above
Summary of the method: as §1

SK-N-FI (Neuroblastoma) = test: as above
Summary of the method: as §1

[7] = system: TE-5 (Esophageal Squamous Cell Carcinoma); test: as above
Summary of the method: as §1

[8] = system: KARPAS-1106P (B-Cell Non-Hodgkin's Lymphoma); test: as above
Summary of the method: as §1

NCI-H2595 (Mesothelioma) = test: as above
Summary of the method: as §1

[9] = system: LS-513 (Colorectal Carcinoma); test: as above
Summary of the method: as §1

[10] = system: SW1783 (Low Grade Glioma); test: as above
Summary of the method: as §1

[11] = system: DB (B-Cell Non-Hodgkin's Lymphoma); test: as above
Summary of the method: as §1

[12] = system: SW1088 (Low Grade Glioma); test: as above
Summary of the method: as §1

SN12C (Kidney Carcinoma) = test: as above
Summary of the method: as §1

[13] = system: SW1990 (Pancreatic Carcinoma); test: as above
Summary of the method: as §1

[14] = system: HT-29 (Colorectal Carcinoma); test: as above
Summary of the method: as §1

[15] = system: MFH-ino (Other Solid Carcinomas); test: as above
Summary of the method: as §1
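Throughout, for Bliss excess, mean over the matrix: after 72 h of two-drug dosing.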

Structure (SMILES) | Bliss excess [1] | Bliss excess [2] | Bliss excess [3] | Bliss excess [4] | Bliss excess (RH-1 (Ewing's Sarcoma)) | Bliss excess [5] | combination Emax (DSH1 (Bladder Carcinoma)) | combination Emax [6] | combination Emax (SK-N-FI (Neuroblastoma)) | combination Emax [7] | combination Emax [8] | combination Emax (NCI-H2595 (Mesothelioma)) | combination Emax [9] | combination Emax [10] | combination Emax [11] | combination Emax [12] | combination Emax (SN12C (Kidney Carcinoma)) | combination Emax [13] | combination Emax [14] | combination Emax [15]
CS(=O)(=O)CCNCc1ccc(-c2ccc3ncnc(Nc4ccc(OCc5cccc(F)c5)c(Cl)c4)c3c2)o1 [Lapatinib] + NC1(c2ccc(-c3nc4ccn5c(=O)[nH]nc5c4cc3-c3ccccc3)cc2)CCC1 [MK-2206] (first compound max 10 µM, 7x7, partner max 10 µM) | -0.0506 | -0.0219 | 0.0667 | 0.0116 | -0.0202 | -0.0054 | 1 | 0.273 | 0.461 | 0.728 | 0.666 | 0.228 | 0.951 | 0.395 | 0.944 | 0.624 | 0.238 | 0.256 | 0.95 | 0.153
CN(CCO)CC[C@H](CSc1ccccc1)Nc1ccc(S(=O)(=O)NC(=O)c2ccc(N3CCC([C@@H](O)c4ccccc4-c4ccc(Cl)cc4)CC3)cc2)cc1S(=O)(=O)C(F)(F)F [AZD4320] + Nc1ccn([C@@H]2O[C@H](CO)[C@@H](O)C2(F)F)c(=O)n1 [Gemcitabine] (first compound max 1 µM, 7x7, partner max 0.3 µM) | – | – | – | – | – | – | 0.965 | 0.674 | 0.378 | 0.875 | 0.943 | 0.382 | 0.855 | 0.911 | 1 | 0.151 | 0.52 | 0.627 | 0.733 | 0.873
CN(CCO)CC[C@H](CSc1ccccc1)Nc1ccc(S(=O)(=O)NC(=O)c2ccc(N3CCC([C@@H](O)c4ccccc4-c4ccc(Cl)cc4)CC3)cc2)cc1S(=O)(=O)C(F)(F)F [AZD4320] + CC(=O)O[C@H]1C(=O)[C@@]2(C)[C@H]([C@H](OC(=O)c3ccccc3)[C@]3(O)C[C@H](OC(=O)[C@H](O)[C@@H](NC(=O)c4ccccc4)c4ccccc4)C(C)=C1C3(C)C)[C@]1(OC(C)=O)CO[C@@H]1C[C@@H]2O [Paclitaxel] (first compound max 1 µM, 7x7, partner max 3 µM) | – | – | – | – | – | – | 1 | 0.86 | 0.739 | 0.968 | 0.97 | 0.726 | 0.963 | 0.875 | 1 | 0.837 | 0.823 | 0.957 | 0.885 | 0.777
C[C@@H]1COCCN1c1cc(C2([S@](C)(=N)=O)CC2)nc(-c2ccnc3[nH]ccc23)n1 [AZD6738] + C1CC(C1)(C(=O)[O-])C(=O)[O-].N.N.[Pt+2] [Carboplatin] (first compound max 10 µM, 7x7, partner max 10 µM) | – | – | – | – | – | – | 0.725 | 0.889 | 0.601 | 0.541 | 0.658 | 0.275 | 0.727 | 0.447 | 0.435 | 0.602 | 0.222 | 0.422 | 0.766 | 0.468
N#Cc1cnc(Nc2cc(NC[C@H]3CNCCO3)c(C(F)(F)F)cn2)cn1 [SRA737] + C=CCn1c(=O)c2cnc(Nc3ccc(N4CCN(C)CC4)cc3)nc2n1-c1cccc(C(C)(C)O)n1 [AZD1775] (first compound max 10 µM, partner max 1 µM) | – | – | – | – | – | – | 0.682 | 0.955 | 0.722 | 0.482 | 0.913 | 0.236 | 0.84 | 0.467 | 0.87 | 0.77 | 0.212 | 0.507 | 0.827 | 0.441
C[C@@H](Nc1cc(F)cc(F)c1)c1cc(C(=O)N(C)C)cc2c(=O)cc(N3CCOCC3)oc12 [AZD8186] + CC(=O)c1c(C)c2cnc(Nc3ccc(N4CCNCC4)cn3)nc2n(C2CCCC2)c1=O [Palbociclib] (first compound max 10 µM, 7x7, partner max 10 µM) | – | – | – | – | – | – | 0.471 | 0.333 | 0.43 | 0.394 | 0.791 | 0.303 | 0.584 | 0.617 | 0.601 | 0.724 | 0.281 | 0.267 | 0.562 | 0.423
Cc1nc(-c2cn3c(n2)-c2ccc(-c4cnn(C(C)(C)C(N)=O)c4)cc2OCC3)n(C(C)C)n1 [Taselisib] + O=C(Nc1ccc2[nH]nc(-c3ccncc3)c2c1)[C@@H]1CCN(CC(=O)N2CCN(c3ccc(-c4ncccn4)cc3)CC2)C1 [SCH772984] (first compound max 10 µM, 7x7, partner max 5 µM) | – | – | – | – | – | – | 0.977 | 0.418 | 0.877 | 0.822 | 0.78 | 0.393 | 0.975 | 0.643 | 0.449 | 0.72 | 0.387 | 0.655 | 0.965 | 0.659
C[C@@H](Oc1cc(-c2cnn(C3CCNCC3)c2)cnc1N)c1c(Cl)ccc(F)c1Cl [Crizotinib] + CC1=C(C(=CC=C1)Cl)NC(=O)C2=CN=C(S2)NC3=CC(=NC(=N3)C)N4CCN(CC4)CCO [Dasatinib] (first compound max 10 µM, 7x7, partner max 2 µM) | – | – | – | – | – | – | 0.437 | 0.303 | 0.422 | 0.56 | 0.954 | 0.628 | 0.978 | 0.784 | 0.711 | 0.829 | 0.231 | 0.255 | 0.881 | 0.821
C[C@@H](Oc1cc(-c2cnn(C3CCNCC3)c2)cnc1N)c1c(Cl)ccc(F)c1Cl [Crizotinib] + Cn1cnc2c(F)c(Nc3ccc(Br)cc3Cl)c(C(=O)NOCCO)cc21 [Selumetinib] (first compound max 10 µM, 7x7, partner max 10 µM) | – | – | – | – | – | – | 0.229 | 0.243 | 0.809 | 0.186 | 0.953 | 0.292 | 1 | 0.194 | 0.751 | 0.596 | 0.244 | 0.158 | 0.98 | 0.542
O=C(c1cc(Cc2n[nH]c(=O)c3ccccc23)ccc1F)N1CCN(C(=O)C2CC2)CC1 [Olaparib] + CC1(C)CCC(CN2CCN(c3ccc(C(=O)NS(=O)(=O)c4ccc(NCC5CCOCC5)c([N+](=O)[O-])c4)c(Oc4cnc5[nH]ccc5c4)c3)CC2)=C(c2ccc(Cl)cc2)C1 [Venetoclax] (first compound max 10 µM, 7x7, partner max 1 µM) | – | – | – | – | – | – | 0.272 | 0.165 | 0.0529 | 0.0752 | 0.402 | 0.109 | 0.18 | 0.0873 | 0.849 | 0.136 | 0.206 | 0.179 | 0.115 | 0.118
Cc1cc2ncnn2cc1Nc1ncc2c(n1)n(C1CCOCC1)c(=O)n2C [AZD7648] + COc1cc([C@@H]2c3cc4c(cc3[C@@H](O[C@@H]3O[C@@H]5CO[C@@H](C)O[C@H]5[C@H](O)[C@H]3O)[C@H]3COC(=O)[C@H]23)OCO4)cc(OC)c1O [Etoposide] (first compound max 10 µM, 7x7, partner max 10 µM) | – | – | – | – | – | – | 0.844 | 0.855 | 0.368 | 0.668 | 0.781 | 0.446 | 0.662 | 0.706 | 0.907 | 0.574 | 0.641 | 0.337 | 0.711 | 0.665
O=C(c1cc(Cc2n[nH]c(=O)c3ccccc23)ccc1F)N1CCN(C(=O)C2CC2)CC1 [Olaparib] + Cc1c2c(nn1C)CSCc1cc(n(C)n1)CSc1cc(c3ccccc3c1)OCCCc1c(C(=O)O)n(C)c3c-2c(Cl)ccc13 [AZD5991] (first compound max 10 µM, 7x7, partner max 1 µM) | – | – | – | – | – | – | 0.692 | 0.655 | 0.211 | 0.0405 | 0.919 | 0.217 | 0.204 | 0.0425 | 0.994 | 0.136 | 0.065 | 0.238 | 0.0739 | 0.0277
C[C@@H]1COCCN1c1cc(C2([S@](C)(=N)=O)CC2)nc(-c2ccnc3[nH]ccc23)n1 [AZD6738] + Nc1ccn([C@@H]2O[C@H](CO)[C@@H](O)C2(F)F)c(=O)n1 [Gemcitabine] (first compound max 10 µM, 7x7, partner max 0.3 µM) | – | – | – | – | – | – | 1 | 0.925 | 0.789 | 0.666 | 0.926 | 0.374 | 0.824 | 0.755 | 0.913 | 0.731 | 0.779 | 0.463 | 0.873 | 0.716
